Source: article PMC6149995 (2017)

How the values were obtained:
[1] = system: 22AG (DNA, G4) AGGGTTAGGGTTAGGGTTAGGG; test: circular dichroism titration; conditions: 10 mM lithium cacodylate pH 7.2, 21 °C, 3 µM DNA
[2] = system: FmycT (DNA, G4) TTGAGGGTGGGTAGGGTGGGTAA; test: FRET melting; conditions: 1 mM K+, 99 mM Li+; 10 mM lithium cacodylate pH 7.2; 1 µM ligand, 0.2 µM DNA; limit stated for all other cases
[3] = system: Myc2345-Pu22 (DNA, G4) TGAGGGTGGGTAGGGTGGGTAA; test: fluorescence titration (ligand quenching, Hill fit); conditions: 100 mM K+; 10 mM lithium cacodylate pH 7.2, r.t., 0.5 µM ligand, DNA titrated
[4] = system: 22AG (DNA, G4) AGGGTTAGGGTTAGGGTTAGGG; test: as above; conditions: 10 mM lithium cacodylate pH 7.2, r.t., 0.5 µM ligand, DNA titrated
[5] = system: ds26 (DNA, duplex) CAATCGGATCGAATTCGATCCGATTG; test: fluorescence titration; conditions: K+ buffer; insignificant fluorescence reduction, fit unsuccessful; 0.5 µM ligand
[6] = system: F21T (DNA, G4) GGGTTAGGGTTAGGGTTAGGG; test: FRET melting; conditions: 90 mM Li+, 10 mM lithium cacodylate pH 7.2, 1 µM ligand, 0.2 µM DNA, limit stated for all other cases
[7] = 100 mM K+, 0-5 equiv ligand, conversion to antiparallel
[8] = 100 mM Na+, slightly reduced helicity, antiparallel kept

Row | binding [1, 7] | binding [1, 8] | ΔTm [2] [°C] | KD [3] | KD ([4]; 100 mM K+) | KD ([4]; 100 mM Na+) | binding [5] | binding ([1]; 100 mM K+, needs more equivalents to rearrange) | ΔTm ([6]; 10 mM K+) [°C] | ΔTm ([6]; 10 mM Na+) [°C] | Compound
1 | yes | yes | < 3 | (1.9 ± 0.1) × 10^−7 M^−1 | (5.0 ± 0.3) × 10^−7 M^−1 | (0.6 ± 0.0) × 10^−7 M^−1 | no |  |  |  | c1ccc(-c2cnc(-c3cccc(-c4cnc(-c5cccc(-c6cnc(-c7ccccn7)o6)n5)o4)n3)o2)nc1
2 |  | yes | < 3 | (4.8 ± 0.3) × 10^−7 M^−1 | (3.2 ± 0.1) × 10^−7 M^−1 | (7.2 ± 0.8) × 10^−7 M^−1 | no | yes | < 3 | < 3 | c1ccc(-c2cnc(-c3cccc(-c4cnc(-c5ccccn5)o4)n3)o2)nc1
3 | yes | yes | < 3 | (1.7 ± 0.1) × 10^−7 M^−1 | (2.2 ± 0.1) × 10^−7 M^−1 | (0.8 ± 0.1) × 10^−7 M^−1 | no |  |  |  | c1ccc(-c2cnc(-c3cccc(-c4cnc(-c5cccc(-c6cnco6)n5)o4)n3)o2)nc1
